Data set [1] has as its system RKO p21 cells. The experiment in a line: RKOp21 model, XTT assay. The data set is classed as cell-based. Particulars: Homo sapiens; Table 2; read-out: RKP p21 induced IC50. From the text:
The model used for examining the cell cycle-specific action was the RKOp21 cell system (M. Schmidt et al. Oncogene19(20):2423-9, 2000). RKO is a human colon carcinoma line in which the cell cycle inhibitor p21^wafl is expressed induced by the ecdysone expression system and leads to an arrest of the cell cycle specifically in G1 and G2. Nonspecific substances inhibit proliferation independently of whether the RKO cell is arrested in G1 or G2 or not. In contrast, cell cycle-specific substances, such as, for example, tubulin inhibitors, are only cytotoxic if the cells are not arrested and the cell cycle is in progress. […] This underlines the arrest of the cell cycle in […] already found in the FACS analyses, and a cell cycle-specific action of the compounds tested.
The assay is carried out in 96-well plates. […] Comparison of the activity on induced and non-induced cells allows conclusions to be drawn about the mechanism of action (cell cycle specificity) of the therapeutics. Non-induced [sic] cells are sown at a cell count which is about four times higher than that of non-induced cells since, compared to non-induced cells, there is no further division during the assay (2×10^4 cells/well induced, about 0.6×10^4 cells/well not induced). The controls are untreated cells (+/− induction). Induction is carried out using 3 μM of muristerone A. On day 1, the cells are plated (+/− muristerone A) and incubated at 37° C. for 24 h. On day 2, the test substance is added (control DMSO) and incubation at 37° C. is continued for another 48 h, after which a standard XTT assay is carried out.

The test system of data set [2] is human glioma cell line A-172. The experiment in a line: XTT cytotoxicity test, A-172. The conditions noted are these: A 172, 45 h, read-out: IC50 A-172.
In data set [3] the test system is human glioblastoma cell line U373. In words: Cell cycle analysis by FACS. The conditions noted are these: U373, treated 24 h, FIG. 2.
The subject of data set [4] is human cervical carcinoma cell line KB/HeLa. In words: XTT cytotoxicity test, KB/HeLa. In kind it is cell-based.
The subject of data set [5] is rhabdomyosarcoma SXF 463. In words: Human tumor xenograft SXF 463 in naked mice. The data set is classed as in vivo. The conditions noted are these: SXF 463, oral, 200 mg/kg, 2 weeks. From the text:
(§1) For the in vivo experiments on naked mice, subcutaneously transplanted tumor fragments of the human melanoma MEXF 989 and/or the rhabdomyosarcoma SXF 463 were used. […]; Monday to Friday). […]. The cell lines included intestinal (2), stomach (1), lung (3), breast (2), melanoma (2), ovary (1), kidney (1) and uterus (1) tumor cell lines. […]. Emphasis is furthermore to be given to the oral bioavailability of the indole compounds according to the invention. […]

Data set [6] concerns human melanoma MEXF 989. In words: Human tumor xenograft MEXF 989 in naked mice. The data set is classed as in vivo. Particulars: MEXF 989, oral, 2 weeks, 5 administrations per week.
Excerpt: as §1
For orientation: Xenograft models place foreign cells or tissue in a host animal.

Data set [7] relates to human glioma cell line U118. In words: XTT cytotoxicity test, U118. The conditions noted are these: 45 h, read-out: IC50 U118. For orientation: Tetrazolium assays rely on reduction of a dye to a coloured formazan, in cell work by metabolically active cells.
For data set [8], the system named is human glioma cell line U373. In words: XTT cytotoxicity test, U373. The conditions noted are these: U373 MG, 45 h, read-out: IC50 U373.
Data set [9] concerns rat glioma cell line C6. The experiment in a line: XTT cytotoxicity test, C6. The conditions noted are these: 45 h, read-out: IC50 C6.
Data set [10] has as its system 12 permanent human tumor cell lines. The experiment in a line: Propidium iodide-based cytotoxicity assay. The data set is classed as cell-based. From the text: (§2) . The cell lines included intestinal (2), stomach (1), lung (3), breast (2), melanoma (2), ovary (1), kidney (1) and uterus (1) tumor cell lines. […]. Emphasis is furthermore to be given to the oral bioavailability of the indole compounds according to the invention. […]

The nature of data set [11]: Tolerability and oral administration in naked mice. The data set is classed as in vivo.
Excerpt: as §2

The subject of data set [12] is T1, bovine brain tubulin.
T1 construct: The tubulin used in the assay was isolated from bovine brain using cycles of polymerization and depolymerization
In words: Bovine tubulin polymerization assay. The conditions noted are these: inhibition of tubulin polymerization; read-out: Tubulin-hemmung/ IC50. In kind it is biochemical. Here is the method:
In an in vitro test, selected compounds were tested for inhibition of polymerization of bovine brain. In this test, tubulin purified by cycles of polymerization and depolymerization, polymerization being initiated by addition of GTP and heating, is used.
The tubulin used in the assay was isolated from bovine brain using cycles of polymerization and depolymerization. […] The appropriate amount of test substance, dissolved in 100% DMSO, is pipetted to this mixture. 10 μl of purified bovine tubulin (50-60 μg of tubulin per well) are then added. […] 200 μl/well of decolorizing solution (25 mM NaOH, 50% ethanol, 0.05 mM EDTA) are finally added using a pipette. Following a 20 minute incubation at room temperature on a shaker (400 rpm), the absorption of 600 nm [sic] is measured in a photometer. What is calculated is the inhibition in % based on the 100% value of a positive control (which contains no test substance), and/or, if a concentration/activity curve is plotted, the lC50 value.

The subject of data set [13] is various glioma lines. The experiment in a line: XTT cytotoxicity test, various glioma lines. In kind it is cell-based. From the text: The publication by M. Medarde et al. 1998, Eur. J. Med. Chem. Vol. 33, pp. 71-77 describes combretastatin analogs which have antitumor action in a proliferation assay with the tumor cell lines P388 (leukemia, murine), A549 (pulmonary carcinoma, human), HT29 (colon carcinoma, human) and Mel28 (melanoma, human).

Each structure is given as a SMILES string. Like-named read-outs stand apart in the source and are kept apart here.

Take `COc1ccc2[nH]c(C(=O)c3ccccc3)cc2c1` [Example D-64131, 5-methoxy-1H-2-indolylphenyl-1-methanone]: the IC50 in data set [1] amounted to 0.015 µM; in data set [2] it was 0.051 µM; in data set [4] (45 h, read-out: IC50 KB/HeLa) it was 0.024 µM; in data set [4] (read-out: Zytotoxizität KB/HeLa IC50), 0.024 µM; in data set [7], 0.024 µM; in [8] it was 0.022 µM. Besides, the IC50 in data set [9] was 0.0965 µM; in data set [10] (12 human tumor cell lines, read-out: average IC50 for all cell lines examined), 0.34 µM; in data set [10] (lung and stomach tumor cell lines, read-out: IC50), roughly 4 µM; in data set [10] (melanoma, intestinal and kidney tumor cells, read-out: IC50), 0.004 µM. Besides, the “cells in the metaphase of mitotic division (M-phase)” value in data set [3] is listed as “concentration-dependent arrest of the cells in mitosis”. Also, the “growth inhibition relative to the control” value in data set [5] is given as 83%. Moreover, the growth inhibition in [6] (100 mg/kg/day) stood at 66%; in data set [6] (200 mg/kg/day), 81%. Moreover, the oral bioavailability entry in data set [11] (concluded from oral activity) is “orally bioavailable”. This compound came in with a tolerated maximum dose in data set [11] (intraperitoneal injection, administered weekly) of 400 mg/kg. In data set [11] (p.o. 100 and 200 mg/kg, Qdx5 for 2 weeks), the tolerability result was “tolerated very well”.
As to `COc1cccc(C(=O)c2cc3cc(OC)ccc3[nH]2)c1` [Example D-68144, 5-methoxy-1H-2-indolyl(3-methoxyphenyl)-1-methanone], the IC50 is 0.0036 µM in [1]; 0.015 µM in data set [2]; 2.42 µM in data set [12]; 0.0066 µM in data set [4] (XTT test, 45 h incubation, read-out: IC50 KB/HeLa); 0.005 to 0.015 µM in [13] (read-out: inhibitory activity IC50 in various glioma lines); 0.0083 µM in data set [7]. The IC50 in [8] was 0.005 µM; in data set [9] it was 0.0096 µM. The “cells in the metaphase of mitotic division (M-phase)” value in data set [3] is “concentration-dependent arrest of the cells in mitosis”. For the same compound, in [13] (compared with Medarde et al.), the “factor more active than compound 4d” value is listed as 40-60.

The record behind these values is patent US20020091124A1, “2-acyl indole derivatives and their use as antitumor agents” (priority 2000, published 2002).
